We go through 2 compounds from patent US20230201172A1, “METHODS OF TREATING CFTR RELATED DISEASES AND DISORDERS” (ARIEL PRECISION MEDICINE, INC., priority 2020, published 2023).

Like-named read-outs stand apart in the source and are kept apart here.

For data set [1] the following is noted: cystic fibrosis patients with comorbid pancreatic diseases (Carrion et al. 2018); cited from earlier work.
The next data set addresses T1, F508del-CFTR (Homo sapiens, UniProt P13569, DEL508-508).
T1 construct: endogenous in cells; host or cells: CF-hBE (primary human bronchial epithelial cells from CF donors)
Put plainly: Ussing chamber electrophysiology, acute potentiation of F508del-CFTR current in corrected CF-hBE cells. In kind it is cell-based. The settings on record: for Maximum efficacy (Emax), relative efficacy: normalized to response of 1 μM ivacaftor (=1.0), cells treated with the three correctors. How it is done:
Methods: […] Electrophysiology assays were conducted in an Ussing chamber in which corrected cells were treated with ascending concentrations of […] (0.001-10 μM) or ivacaftor (0.0003-1.0 μM). […] FIG. 1 legend: Ussing assay dose-response curves for potentiation of F508del-CFTR current following acute addition of ivacaftor (0.0003-1.0 μM, black circles) and […] (0.001-10 μM, blue squares labeled FDL176). Cells were corrected with lumacaftor (left), tezacaftor (middle), or FDL169 (right), each at 3 μM. For each corrector treatment group, dose response data for ivacaftor and […] were normalized to the response following activation with 1 μM ivacaftor (with matched corrector). Error bars represent SEM. CF-hBE=cystic fibrosis primary human bronchial epithelial cells; CFTR=cystic fibrosis transmembrane conductance regulator; SEM=standard error of the mean.

The nature of data set [2]: NOAEL exposure in dogs vs human dose.
Data set [3] is described as follows: Total plasma Cmin at steady state, human dose. The class given is in vivo.
A short description of data set [4]: NOAEL exposure in rats vs human dose.
Another data set deals with G551D variant (Homo sapiens, UniProt P13569, G551D). Put plainly: Potentiator EC50 for the G551D CFTR variant. The class given is cell-based.
Chain of G551D variant (P13569 whole entry G551D): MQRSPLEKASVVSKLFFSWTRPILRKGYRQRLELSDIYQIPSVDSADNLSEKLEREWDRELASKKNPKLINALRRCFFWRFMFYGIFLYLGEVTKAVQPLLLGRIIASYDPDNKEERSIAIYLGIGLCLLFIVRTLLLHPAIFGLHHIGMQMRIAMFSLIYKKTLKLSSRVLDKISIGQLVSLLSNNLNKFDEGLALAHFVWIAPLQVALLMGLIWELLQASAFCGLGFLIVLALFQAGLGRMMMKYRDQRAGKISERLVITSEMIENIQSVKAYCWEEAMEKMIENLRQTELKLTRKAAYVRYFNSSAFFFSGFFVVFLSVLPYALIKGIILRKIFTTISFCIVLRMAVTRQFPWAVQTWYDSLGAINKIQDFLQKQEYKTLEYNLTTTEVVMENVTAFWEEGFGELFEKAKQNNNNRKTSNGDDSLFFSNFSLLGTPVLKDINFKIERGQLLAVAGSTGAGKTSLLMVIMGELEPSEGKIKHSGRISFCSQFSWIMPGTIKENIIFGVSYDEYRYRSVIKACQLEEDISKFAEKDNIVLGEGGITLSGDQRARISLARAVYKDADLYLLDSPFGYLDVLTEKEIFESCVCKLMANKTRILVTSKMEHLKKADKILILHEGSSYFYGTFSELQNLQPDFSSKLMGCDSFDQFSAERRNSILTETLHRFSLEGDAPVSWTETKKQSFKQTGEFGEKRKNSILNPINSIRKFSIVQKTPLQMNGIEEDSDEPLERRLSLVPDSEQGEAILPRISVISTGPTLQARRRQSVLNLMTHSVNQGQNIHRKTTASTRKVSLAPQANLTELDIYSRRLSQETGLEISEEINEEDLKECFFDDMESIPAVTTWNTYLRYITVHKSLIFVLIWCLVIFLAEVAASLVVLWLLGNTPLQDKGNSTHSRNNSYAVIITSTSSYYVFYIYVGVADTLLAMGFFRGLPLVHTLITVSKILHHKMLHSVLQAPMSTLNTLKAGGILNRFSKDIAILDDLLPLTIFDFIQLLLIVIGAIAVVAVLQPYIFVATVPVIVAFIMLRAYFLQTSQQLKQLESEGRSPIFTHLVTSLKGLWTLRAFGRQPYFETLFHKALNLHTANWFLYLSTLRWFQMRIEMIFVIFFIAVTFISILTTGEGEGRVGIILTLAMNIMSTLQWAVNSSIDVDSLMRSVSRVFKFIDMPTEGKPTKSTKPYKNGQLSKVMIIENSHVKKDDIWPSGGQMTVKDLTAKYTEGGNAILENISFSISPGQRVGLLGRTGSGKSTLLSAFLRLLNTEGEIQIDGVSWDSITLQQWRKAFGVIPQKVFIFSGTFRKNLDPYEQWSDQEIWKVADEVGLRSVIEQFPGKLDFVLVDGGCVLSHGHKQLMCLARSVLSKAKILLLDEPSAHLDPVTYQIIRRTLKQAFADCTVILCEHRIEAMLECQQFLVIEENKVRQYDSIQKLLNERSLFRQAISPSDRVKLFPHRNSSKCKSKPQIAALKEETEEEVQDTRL

T1 sequence (P13569 with tags, fused parts or gaps DEL508-508): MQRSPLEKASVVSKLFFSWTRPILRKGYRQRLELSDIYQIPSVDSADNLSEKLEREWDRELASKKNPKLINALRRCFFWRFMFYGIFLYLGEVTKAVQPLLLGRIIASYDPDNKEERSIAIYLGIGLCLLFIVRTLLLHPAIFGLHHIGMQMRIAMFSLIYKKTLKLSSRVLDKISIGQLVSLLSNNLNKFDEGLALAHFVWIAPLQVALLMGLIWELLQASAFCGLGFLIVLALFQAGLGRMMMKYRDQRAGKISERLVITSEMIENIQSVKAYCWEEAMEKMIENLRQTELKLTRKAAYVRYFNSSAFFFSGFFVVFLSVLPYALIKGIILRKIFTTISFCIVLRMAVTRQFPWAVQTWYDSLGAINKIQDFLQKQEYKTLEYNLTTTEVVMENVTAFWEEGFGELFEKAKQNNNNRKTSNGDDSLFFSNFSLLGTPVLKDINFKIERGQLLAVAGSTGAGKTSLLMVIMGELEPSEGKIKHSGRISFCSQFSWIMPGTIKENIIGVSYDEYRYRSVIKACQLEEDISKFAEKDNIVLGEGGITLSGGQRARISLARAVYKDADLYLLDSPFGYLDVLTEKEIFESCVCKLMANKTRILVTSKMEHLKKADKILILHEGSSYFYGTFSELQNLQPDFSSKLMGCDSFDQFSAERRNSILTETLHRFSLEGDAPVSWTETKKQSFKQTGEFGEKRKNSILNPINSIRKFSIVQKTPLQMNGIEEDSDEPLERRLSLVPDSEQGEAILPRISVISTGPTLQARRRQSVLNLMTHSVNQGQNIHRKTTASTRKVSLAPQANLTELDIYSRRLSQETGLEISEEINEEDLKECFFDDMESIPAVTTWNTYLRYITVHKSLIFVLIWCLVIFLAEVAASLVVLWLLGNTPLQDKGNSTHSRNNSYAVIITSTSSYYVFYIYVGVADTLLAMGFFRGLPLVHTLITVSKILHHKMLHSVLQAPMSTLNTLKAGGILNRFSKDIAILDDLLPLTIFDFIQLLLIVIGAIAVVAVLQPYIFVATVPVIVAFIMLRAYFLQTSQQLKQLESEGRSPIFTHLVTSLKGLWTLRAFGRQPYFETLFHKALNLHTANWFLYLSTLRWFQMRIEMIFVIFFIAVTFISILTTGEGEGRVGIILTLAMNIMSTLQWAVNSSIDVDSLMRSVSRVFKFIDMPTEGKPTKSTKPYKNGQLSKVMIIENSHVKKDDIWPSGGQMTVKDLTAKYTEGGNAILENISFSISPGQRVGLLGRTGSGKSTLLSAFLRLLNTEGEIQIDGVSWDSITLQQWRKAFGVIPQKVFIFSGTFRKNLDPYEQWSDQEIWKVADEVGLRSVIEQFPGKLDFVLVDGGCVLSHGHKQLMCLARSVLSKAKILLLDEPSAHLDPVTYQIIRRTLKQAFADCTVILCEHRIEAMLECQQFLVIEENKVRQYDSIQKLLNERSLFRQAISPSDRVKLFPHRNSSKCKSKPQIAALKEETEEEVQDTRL

Broadly, the EC50 is the midpoint of the concentration-response curve. Turning to `CC(C)(C)c1cc(C(C)(C)C)c(NC(=O)c2c[nH]c3ccccc3c2=O)cc1O` [ivacaftor, reference compound], the “Recurrence rate of pancreatitis” value in data set [1] is “decreased recurrence rate of pancreatitis”. Further, the concentration giving a half-maximal response (EC50) at F508del-CFTR (corrector treated CF-hBE cells (lumacaftor, tezacaftor, FDL169), acute addition, read-out: EC50 range, potentiation of F508del-CFTR current) is 3.6 to 9.1 nM. For the same compound, the “Maximum efficacy (Emax), relative efficacy” value at F508del-CFTR came out at 1.0.
Take `Cl.O=S(=O)(c1ccccc1)c1ccc2nc(NCc3ccc(-c4ccccn4)cc3)nn2c1` [X0176, 6-(phenylsulfonyl)-N-(4-(pyridin-2-yl)benzyl)-[1,2,4]triazolo[1,5-a]pyridin-2-amine hydrochloride]: the figures for the “Safety margin of NOAEL exposure over a 50 mg human dose” value in data set [2] and in data set [4] were 1.1 fold and 3.4 fold, respectively. Also, the “Total plasma Cmin at steady state” value is 2180 nM in data set [3] (30 mg dose) and 3170 nM in data set [3] (50 mg dose). The EC50 on F508del-CFTR (CF-hBE cells corrected with FDL169 3 μM, acute addition (<1 hour), read-out: EC50, potentiation of F508del-CFTR current) worked out at 204 ± 24.4 nM; at F508del-CFTR (CF-hBE cells corrected with lumacaftor 3 μM, acute addition (<1 hour), read-out: EC50, potentiation of F508del-CFTR current) it was 133 ± 18.1 nM; at F508del-CFTR (CF-hBE cells corrected with tezacaftor 3 μM, acute addition (<1 hour), read-out: EC50, potentiation of F508del-CFTR current), 202 ± 44.6 nM; at G551D variant it was 2600 nM. At F508del-CFTR, the “Maximum efficacy (Emax), relative efficacy” value is 1.0.
